Tested on: MV-4-11 cells
Assay: Gene expression microarray analysis (Affymetrix PrimeView) and GSEA
Format: cell-based, human
Set-up: RFU PODN (11730768_x_at) / Fold change /veh PODN (11730768_x_at) / RFU LINC00158 (11744669_a_at) / Fold change /veh LINC00158 (11744669_a_at) / RFU DUSP10 (11751237_a_at) / Fold change /veh DUSP10 (11751237_a_at) / RFU ID3 (11757404_x_at) / Fold change /veh ID3 (11757404_x_at) / RFU PLEKHG5 (11737974_s_at) / Fold change /veh PLEKHG5 (11737974_s_at) / RFU LRRC4B (11730491_at) / Fold change /veh LRRC4B (11730491_at) / RFU GIMAP4 (11747438_a_at) / Fold change /veh GIMAP4 (11747438_a_at) / RFU KRT8 (11758183_x_at) / Fold change /veh KRT8 (11758183_x_at) / RFU CNN1 (11734310_a_at) / Fold change /veh CNN1 (11734310_a_at) / RFU VPS37D (11726825_at) / Fold change /veh VPS37D (11726825_at) / RFU C10orf10 (11716522_x_at) / Fold change /veh C10orf10 (11716522_x_at) / RFU KIR2DL2 /// KIR2DL4 /// KIR2DL5A /// KIR2DL5B /// KIR2DS1 /// KIR2DS2 /// KIR2DS3 /// KIR2DS4 /// KIR3DL3 /// KIR3DL3 /// KIR3DS1 (11738374_at) / Fold change /veh KIR2DL2 /// KIR2DL4 /// KIR2DL5A /// KIR2DL5B /// KIR2DS1 /// KIR2DS2 /// KIR2DS3 /// KIR2DS4 /// KIR3DL3 /// KIR3DL3 /// KIR3DS1 (11738374_at) / RFU C1QL1 (11718748_at) / Fold change /veh C1QL1 (11718748_at) / RFU TMPRSS4 (11747572_a_at) / Fold change /veh TMPRSS4 (11747572_a_at) / RFU HAMP (11756126_x_at) / Fold change /veh HAMP (11756126_x_at) / RFU RNFT2 (11725882_a_at) / Fold change /veh RNFT2 (11725882_a_at) / RFU NR4A2 (11747474_a_at) / Fold change /veh NR4A2 (11747474_a_at) / RFU ABCC12 (11746883_a_at) / Fold change /veh ABCC12 (11746883_a_at) / RFU TMEM136 (11760407_x_at) / Fold change /veh TMEM136 (11760407_x_at) / RFU CLDN22 /// WWC2 (11732394_at) / Fold change /veh CLDN22 /// WWC2 (11732394_at) / RFU HLA-DPB1 (11760878_x_at) / Fold change /veh HLA-DPB1 (11760878_x_at) / RFU SPINT1 (11716480_a_at) / Fold change /veh SPINT1 (11716480_a_at) / RFU GAP43 (11754022_s_at) / Fold change /veh GAP43 (11754022_s_at) / RFU A4GNT (11735810_at) / Fold change /veh A4GNT (11735810_at) / RFU PRB3 (11715151_x_at) / Fold change /veh PRB3 (11715151_x_at) / RFU TUBB4B (11761932_at) / Fold change /veh TUBB4B (11761932_at) / RFU CAPN14 (11732068_a_at) / Fold change /veh CAPN14 (11732068_a_at) / RFU TMCC2 (11721928_a_at) / Fold change /veh TMCC2 (11721928_a_at) / RFU IRGQ (11745062_a_at) / Fold change /veh IRGQ (11745062_a_at) / RFU FAM174B (11720279_a_at) / Fold change /veh FAM174B (11720279_a_at) / RFU TMPRSS4 (11748680_a_at) / Fold change /veh TMPRSS4 (11748680_a_at) / RFU FAM212B (11763350_a_at) / Fold change /veh FAM212B (11763350_a_at) / RFU PLEKHG5 (11743358_a_at) / Fold change /veh PLEKHG5 (11743358_a_at) / RFU ZSCAN30 (11745921_a_at) / Fold change /veh ZSCAN30 (11745921_a_at) / RFU CMKLR1 (11741424_a_at) / Fold change /veh CMKLR1 (11741424_a_at) / RFU LOC101060620 /// MAPK8IP1 (11723275_at) / Fold change /veh LOC101060620 /// MAPK8IP1 (11723275_at) / RFU SPTSSB (11747773_x_at) / Fold change /veh SPTSSB (11747773_x_at) / RFU PRSS12 (11739890_at) / Fold change /veh PRSS12 (11739890_at) / RFU BIN1 (11741810_x_at) / Fold change /veh BIN1 (11741810_x_at) / RFU WNT11 (11732464_a_at) / Fold change /veh WNT11 (11732464_a_at) / RFU C10orf10 (11716521_a_at) / Fold change /veh C10orf10 (11716521_a_at) / RFU C5orf56 (11738089_at) / Fold change /veh C5orf56 (11738089_at) / RFU CYB561 (11721691_x_at) / Fold change /veh CYB561 (11721691_x_at) / RFU ANKRD19P (11752326_a_at) / Fold change /veh ANKRD19P (11752326_a_at) / RFU OR2T12 /// OR2T33 /// OR2T8 (11738714_s_at) / Fold change /veh OR2T12 /// OR2T33 /// OR2T8 (11738714_s_at) / RFU VCAN (11748164_a_at) / Fold change /veh VCAN (11748164_a_at) / RFU JSRP1 (11732532_at) / Fold change /veh JSRP1 (11732532_at) / RFU KRTAP10-11 (11738290_x_at) / Fold change /veh KRTAP10-11 (11738290_x_at) / RFU MYO3A (11730013_a_at) / Fold change /veh MYO3A (11730013_a_at) / RFU EBF3 (11725865_a_at) / Fold change /veh EBF3 (11725865_a_at) / RFU CAMK2N1 (11719241_x_at) / Fold change /veh CAMK2N1 (11719241_x_at) / RFU C5orf56 (11738088_a_at) / Fold change /veh C5orf56 (11738088_a_at) / RFU OLFML3 (11715873_a_at) / Fold change /veh OLFML3 (11715873_a_at) / RFU LOC100653217 /// NTM (11731650_a_at) / Fold change /veh LOC100653217 /// NTM (11731650_a_at) / RFU MAPK11 (11762145_a_at) / Fold change /veh MAPK11 (11762145_a_at) / RFU FIZ1 (11724087_x_at) / Fold change /veh FIZ1 (11724087_x_at) / RFU OASL (11726364_x_at) / Fold change /veh OASL (11726364_x_at) / RFU SOX15 (11748057_x_at) / Fold change /veh SOX15 (11748057_x_at) / RFU CD79A (11719716_a_at) / Fold change /veh CD79A (11719716_a_at) / RFU HIST1H1D (11736915_at) / Fold change /veh HIST1H1D (11736915_at) / RFU CASKIN2 (11723855_a_at) / Fold change /veh CASKIN2 (11723855_a_at) / RFU LOC730098 (11760151_x_at) / Fold change /veh LOC730098 (11760151_x_at) / RFU OR4N2 (11742367_at) / Fold change /veh OR4N2 (11742367_at) / RFU PRRT2 (11749266_a_at) / Fold change /veh PRRT2 (11749266_a_at) / RFU SNX32 (11753110_a_at) / Fold change /veh SNX32 (11753110_a_at) / RFU CDHR5 (11726645_a_at) / Fold change /veh CDHR5 (11726645_a_at) / RFU RCAN1 (11760418_a_at) / Fold change /veh RCAN1 (11760418_a_at) / RFU FAM167A (11723789_a_at) / Fold change /veh FAM167A (11723789_a_at) / RFU FAM26E (11764081_at) / Fold change /veh FAM26E (11764081_at) / RFU ISYNA1 (11749810_s_at) / Fold change /veh ISYNA1 (11749810_s_at) / RFU ACY1 (11761880_at) / Fold change /veh ACY1 (11761880_at) / RFU 11764098_at / Fold change /veh 11764098_at / RFU SAMD14 (11745864_x_at) / Fold change /veh SAMD14 (11745864_x_at) / RFU NPB (11741838_a_at) / Fold change /veh NPB (11741838_a_at) / RFU TMPRSS6 (11731388_a_at) / Fold change /veh TMPRSS6 (11731388_a_at) / RFU KRTAP10-2 (11738614_at) / Fold change /veh KRTAP10-2 (11738614_at) / RFU ARHGAP8 /// PRR5-ARHGAP8 (11727945_x_at) / Fold change /veh ARHGAP8 /// PRR5-ARHGAP8 (11727945_x_at) / RFU KRTAP5-7 /// NADSYN1 (11734609_at) / Fold change /veh KRTAP5-7 /// NADSYN1 (11734609_at) / RFU RASL12 (11751679_a_at) / Fold change /veh RASL12 (11751679_a_at) / RFU CDKN2B (11736163_a_at) / Fold change /veh CDKN2B (11736163_a_at) / RFU PRF1 (11729649_at) / Fold change /veh PRF1 (11729649_at) / RFU, ZNF638 /// ZNF638-IT1 / Fold change vs veh, ZNF638 /// ZNF638-IT1 / RFU, PANK3 / Fold change vs veh, PANK3 / RFU, SH3YL1 / Fold change vs veh, SH3YL1 / RFU, ZEB2 / Fold change vs veh, ZEB2 / RFU, NRIP1 / Fold change vs veh, NRIP1 / RFU, PTTG1IP / Fold change vs veh, PTTG1IP / RFU, CAPN2 / Fold change vs veh, CAPN2 / RFU, MED14 / Fold change vs veh, MED14 / RFU, SNORA58 / Fold change vs veh, SNORA58 / RFU, C1orf63 / Fold change vs veh, C1orf63 / RFU, LRRFIP1 / Fold change vs veh, LRRFIP1 / RFU, NDUFAF7 / Fold change vs veh, NDUFAF7 / RFU, SLC12A2 / Fold change vs veh, SLC12A2 / RFU, IBTK / Fold change vs veh, IBTK / RFU, ESF1 / Fold change vs veh, ESF1 / Fold change vs veh, TMEM50B / RFU, TAOK1 / Fold change vs veh, TAOK1 / RFU, ACBD3 / Fold change vs veh, ACBD3 / RFU, TMA16 / Fold change vs veh, TMA16 / RFU, RWDD3 / Fold change vs veh, RWDD3 / RFU, BCAT1 / Fold change vs veh, BCAT1 / RFU, EDEM3 / Fold change vs veh, EDEM3 / RFU, TMEM33 / Fold change vs veh, TMEM33 / RFU, WDR75 / Fold change vs veh, WDR75 / RFU, AHCTF1 / Fold change vs veh, AHCTF1 / RFU, TFRC / Fold change vs veh, TFRC / RFU, ZDHHC17 / Fold change vs veh, ZDHHC17 / RFU, NOM1 / Fold change vs veh, NOM1 / RFU, ARL8B / Fold change vs veh, ARL8B / RFU, ZBTB11 / Fold change vs veh, ZBTB11 / RFU, TAMM41 / Fold change vs veh, TAMM41 / RFU, KIAA1704 /// LOC100996395 / Fold change vs veh, KIAA1704 /// LOC100996395 / RFU, ING1 / Fold change vs veh, ING1 / RFU, TRMT61B / Fold change vs veh, TRMT61B / RFU, FUBP3 / Fold change vs veh, FUBP3 / RFU, TP53 / Fold change vs veh, TP53 / RFU, TNKS2 / Fold change vs veh, TNKS2 / RFU, ZFP14 / Fold change vs veh, ZFP14 / RFU, ACTR2 / Fold change vs veh, ACTR2 / RFU, PPP3R1 / Fold change vs veh, PPP3R1 / RFU, PIK3R1 / Fold change vs veh, PIK3R1 / RFU, HNRNPA1 / Fold change vs veh, HNRNPA1 / RFU, RNF170 / Fold change vs veh, RNF170 / RFU, ZNF28 / Fold change vs veh, ZNF28 / RFU, RNGTT / Fold change vs veh, RNGTT / RFU, OGT / Fold change vs veh, OGT / RFU, BRD1 / Fold change vs veh, BRD1 / RFU, MARS / Fold change vs veh, MARS / RFU, ZNF655 / Fold change vs veh, ZNF655 / RFU, FAHD1 / Fold change vs veh, FAHD1 / RFU, BDP1 / Fold change vs veh, BDP1 / RFU, LRRCC1 / Fold change vs veh, LRRCC1 / RFU, ARID1A / Fold change vs veh, ARID1A / RFU, ZNF146 / Fold change vs veh, ZNF146 / RFU, ZNF330 / Fold change vs veh, ZNF330 / RFU, GPN3 / Fold change vs veh, GPN3 / RFU, C9orf123 / Fold change vs veh, C9orf123 / RFU, N4BP2L2 / Fold change vs veh, N4BP2L2 / RFU, ARFIP1 / Fold change vs veh, ARFIP1 / RFU, FAM179B / Fold change vs veh, FAM179B / RFU, BCL10 / Fold change vs veh, BCL10 / RFU, UHRF1BP1L / Fold change vs veh, UHRF1BP1L / RFU, BET1 / Fold change vs veh, BET1 / RFU, CNOT2 / Fold change vs veh, CNOT2 / RFU, ZNF268 / Fold change vs veh, ZNF268 / Fold change vs veh, ZNF507 / RFU, DGCR2 / Fold change vs veh, DGCR2 / RFU, WDSUB1 / Fold change vs veh, WDSUB1 / Fold change vs veh, HSP90B1 /// MIR3652 / RFU, ADSS / Fold change vs veh, ADSS / RFU, GK / Fold change vs veh, GK / RFU, ZNF148 / Fold change vs veh, ZNF148 / RFU, TAF9 / Fold change vs veh, TAF9 / RFU, SLC1A5 / Fold change vs veh, SLC1A5 / RFU, SLMO2 / Fold change vs veh, SLMO2 / RFU, ABCC4 / Fold change vs veh, ABCC4 / RFU, LOC101060439 /// RAP1B / Fold change vs veh, LOC101060439 /// RAP1B / RFU, RFX7 / Fold change vs veh, RFX7 / RFU, GTPBP10 / Fold change vs veh, GTPBP10 / RFU, CNEP1R1 / Fold change vs veh, CNEP1R1 / RFU, BIVM-ERCC5 /// ERCC5 / Fold change vs veh, BIVM-ERCC5 /// ERCC5 / RFU, ILF3 / Fold change vs veh, ILF3 / RFU 11762660_at / Fold change /veh 11762660_at / RFU VCAN (11757783_s_at) / Fold change /veh VCAN (11757783_s_at) / RFU DDX43 (11728927_at) / Fold change /veh DDX43 (11728927_at) / RFU KRT8 (11758188_x_at) / Fold change /veh KRT8 (11758188_x_at) / RFU NKD1 (11759106_at) / Fold change /veh NKD1 (11759106_at) / RFU SRD5A1 (11742802_a_at) / Fold change /veh SRD5A1 (11742802_a_at) / RFU TPSAB1 /// TPSB2 (11721975_s_at) / Fold change /veh TPSAB1 /// TPSB2 (11721975_s_at) / RFU GSTM3 (11746129_a_at) / Fold change /veh GSTM3 (11746129_a_at) / RFU IL23R (11737362_x_at) / Fold change /veh IL23R (11737362_x_at) / RFU TMEM51 (11727254_a_at) / Fold change /veh TMEM51 (11727254_a_at) / RFU PIWIL2 (11732686_x_at) / Fold change /veh PIWIL2 (11732686_x_at) / RFU ORM1 (11744905_x_at) / Fold change /veh ORM1 (11744905_x_at) / RFU CCDC152 (11743942_at) / Fold change /veh CCDC152 (11743942_at) / RFU ECM1 (11717891_a_at) / Fold change /veh ECM1 (11717891_a_at) / RFU IL23R (11748794_a_at) / Fold change /veh IL23R (11748794_a_at) / RFU TNFAIP8L3 (11732012_x_at) / Fold change /veh TNFAIP8L3 (11732012_x_at) / RFU MBOAT4 (11741988_at) / Fold change /veh MBOAT4 (11741988_at) / RFU 11764193_at / Fold change /veh 11764193_at / RFU TMEM53 (11763286_at) / Fold change /veh TMEM53 (11763286_at) / RFU MAGEB2 (11727129_at) / Fold change /veh MAGEB2 (11727129_at) / RFU TMEM200A (11744735_a_at) / Fold change /veh TMEM200A (11744735_a_at) / RFU CCDC152 (11751479_a_at) / Fold change /veh CCDC152 (11751479_a_at) / RFU FAM211A (11726209_a_at) / Fold change /veh FAM211A (11726209_a_at) / RFU RGS16 (11746705_a_at) / Fold change /veh RGS16 (11746705_a_at) / RFU VCAN (11755009_s_at) / Fold change /veh VCAN (11755009_s_at) / RFU RHOB (11743442_s_at) / Fold change /veh RHOB (11743442_s_at) / RFU RGS16 (11720943_a_at) / Fold change /veh RGS16 (11720943_a_at) / RFU RGS16 (11720944_at) / Fold change /veh RGS16 (11720944_at) / RFU, VPS4B / Fold change vs veh, VPS4B / RFU, CREB1 / Fold change vs veh, CREB1 / RFU, DNAJC13 / Fold change vs veh, DNAJC13 / RFU, GNAQ / Fold change vs veh, GNAQ / RFU, CDK5R1 / Fold change vs veh, CDK5R1 / RFU, ZRANB3 / Fold change vs veh, ZRANB3 / RFU, CUL4A / Fold change vs veh, CUL4A / RFU, CCNY / Fold change vs veh, CCNY / RFU, UFL1 / Fold change vs veh, UFL1 / RFU, COG3 / Fold change vs veh, COG3 / RFU, DIAPH2 / Fold change vs veh, DIAPH2 / RFU, SKA2 / Fold change vs veh, SKA2 / RFU, AFF3 / Fold change vs veh, AFF3 / RFU, LMF1 / Fold change vs veh, LMF1 / RFU, IPO11 / Fold change vs veh, IPO11 / RFU, DFFB / Fold change vs veh, DFFB / RFU, FOXP1 / Fold change vs veh, FOXP1 / RFU, CARD8 / Fold change vs veh, CARD8 / RFU, STRN3 / Fold change vs veh, STRN3 / RFU, ADK / Fold change vs veh, ADK / RFU, RASSF2 / Fold change vs veh, RASSF2 / RFU, WIPF1 / Fold change vs veh, WIPF1 / RFU, LARP1B / Fold change vs veh, LARP1B / RFU, RASA1 / Fold change vs veh, RASA1 / RFU, RB1 / Fold change vs veh, RB1 / RFU, PPFIA1 / Fold change vs veh, PPFIA1 / RFU, MAT2A / Fold change vs veh, MAT2A / RFU, CCT5 / Fold change vs veh, CCT5 / RFU, WDR92 / Fold change vs veh, WDR92 / RFU, CUX1 / Fold change vs veh, CUX1 / RFU, TTC7A / Fold change vs veh, TTC7A / RFU, TMEM135 / Fold change vs veh, TMEM135 / RFU, DEPTOR / Fold change vs veh, DEPTOR / RFU, CPM / Fold change vs veh, CPM / RFU, DNAJB6 / Fold change vs veh, DNAJB6 / RFU, CACNA2D3 / Fold change vs veh, CACNA2D3 / RFU, DTX4 / Fold change vs veh, DTX4 / RFU, TFCP2 / Fold change vs veh, TFCP2 / RFU, GMCL1 /// GMCL1P1 / Fold change vs veh, GMCL1 /// GMCL1P1 / RFU, AEBP2 / Fold change vs veh, AEBP2 / RFU, SNHG1 /// SNORD22 /// SNORD25 /// SNORD26 /// SNORD27 /// SNORD28 /// SNORD29 /// SNORD31 / Fold change vs veh, SNHG1 /// SNORD22 /// SNORD25 /// SNORD26 /// SNORD27 /// SNORD28 /// SNORD29 /// SNORD31 / Fold change (Aza/veh), C12orf56 (ProbeSet 11735607_a_at) / Fold change (ACY-1035/veh), C12orf56 (ProbeSet 11735607_a_at) / Fold change (Aza/veh), FGFR1OP (ProbeSet 11751329_s_at) / Fold change (ACY-1035/veh), FGFR1OP (ProbeSet 11751329_s_at) / Fold change (Aza/veh), VPS36 (ProbeSet 11739960_a_at) / Fold change (ACY-1035/veh), VPS36 (ProbeSet 11739960_a_at) / RFU SYPL1 (11715823_x_at) / Fold change /veh SYPL1 (11715823_x_at) / RFU IGFBP7 (11715501_s_at) / Fold change /veh IGFBP7 (11715501_s_at) / RFU REEP3 (11722064_at) / Fold change /veh REEP3 (11722064_at) / RFU IGLL1 (11728026_x_at) / Fold change /veh IGLL1 (11728026_x_at): dose or concentration left out as unconfirmed
Conditions: MV-4-11 cells, 48 hours

Nc1ccc(-c2cccs2)cc1NC(=O)c1ccc2c(c1)cc(C1CC1)n2CCN1CCOCC1 [ACY-1035]
RFU NPB (11741838_a_at): 77.64 RFU

Reference: publication PMC5218480 (PLoS ONE, 2017)
